In US10501434B2, “Configurational stereoisomer of difethialone, composition and rodenticidal bait comprising same, and process for controlling target rodent pests” (priority 2015, dated 2019):

Assay type: in vivo, rat
Conditions: liver of rats which died between D9 and D10 after consuming the 11.8 ppm bait
Protocol: The acetonitrile solution containing difethialone is analysed by high-pressure liquid chromatography on a LUX® Cellulose-3 chiral column (Phenomenex, Le Pecq, France) (150×2 mm, particle size of 3 μm) as described in point A2) above.
The values, expressed as micrograms of laevorotatory enantiomer of said hetero-stereoisomer (“DFN-Hetero-laevo”) per gram of liver, are given in table 3 below.

With `O=c1sc2ccccc2c(O)c1C1CC(c2ccc(-c3ccc(Br)cc3)cc2)Cc2ccccc21` (stereo not shown) [Total difethialone, 3-(4′-bromobiphenyl-4-yl)-1-(4-hydroxythiocoumarin-3-yl)-1,2,3,4-tetrahydronaphthalene] as the compound, how does the “Hepatic content, Mean” value read?
The value was 11.3 µg/g.
